{"source": "patent US10167262B2", "about": "“Herbicidal substituted 3-arylpyrazoles” (FMC CORPORATION, priority 2014, dated 2019)", "tested_on": "waterhemp_RES1, (ALS & Triazine resistant common waterhemp, Amaranthus rudis)", "test": "Test E postemergence greenhouse test, plant response rating 0-100", "type": "in vivo", "details": "scale 0 to 100", "outline": "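Resistant waterhemp biotypes grown in peat/vermiculite medium and treated postemergence at 2–18 cm height (1- to 4-leaf stage). Kept in greenhouse 14 to 21 days, then visually rated against untreated controls on a 0–100 scale (0 no effect, 100 complete control).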"}
{"molecule": "COC(OC)(c1ccccc1)c1c[nH]nc1-c1cc(Cl)cc(Cl)c1", "note": "[Compound 13, 3-(3,5-dichlorophenyl)-4-(dimethoxyphenylmethyl)-1H-pyrazole]", "values": [{"measurement": "Plant response rating, Waterhemp_RES1", "setting": "125 g ai/ha", "value": 90}, {"measurement": "Plant response rating, Waterhemp_RES1", "setting": "500 g ai/ha", "value": 100}]}
{"molecule": "CCOC(OCC)(c1ccccc1)c1c[nH]nc1-c1cc(Cl)cc(Cl)c1", "note": "[Compound 14, 3-(3,5-dichlorophenyl)-4-(diethoxyphenylmethyl)-1H-pyrazole]", "values": [{"measurement": "Plant response rating, Waterhemp_RES1", "setting": "31 g ai/ha", "value": 90}, {"measurement": "Plant response rating, Waterhemp_RES1", "setting": "62 g ai/ha", "value": 95}, {"measurement": "Plant response rating, Waterhemp_RES1", "setting": "125 g ai/ha", "value": 95}, {"measurement": "Plant response rating, Waterhemp_RES1", "setting": "250 g ai/ha", "value": 100}, {"measurement": "Plant response rating, Waterhemp_RES1", "setting": "500 g ai/ha", "value": 100}]}
